Assay results as given in patent publication US20130289014A1, “Combination therapy in treatment of oncological and fibrotic diseases” (BOEHRINGER INGELHEIM INTERNATIONAL GMBH, priority 2010, published 2013).
Each block holds one molecule with its values, some of them ahead of it.

Columns and labels:
[1] = system: Calu-6 xenografts (human NSCLC tumor cell line); assay: Calu-6 NSCLC subcutaneous xenograft, single agents and combination; assay type: in vivo, mice; conditions: Calu-6, d40; large tumors, ca. 350 mm^3 at start of treatment
Description: In order to analyse the anti-tumor effects of combining the inhibition of tumor angiogenesis by interfering with the VEGFR signalling cascade with the antitumor activity of inhibiting Aurora kinase B, the following in vivo experiment is performed. Nude mice carrying established subcutaneous Calu-6 xenografts (human NSCLC tumor cell line) are randomized and treated with either the Aurora B kinase inhibitor of this invention Compound X or BIBF 1120 alone or with the combination of both drugs. After termination of treatment the tumors on the control treated mice (black line with circles in FIG. 1) are in average about 1100 mm^3 in volume.
FIG. 1: Calu-6 NSCLC model, combination BIBF 1120+Compound X, schedule (cf. Drawings; control group: line with circles; BIBF 1120 treated group: line with rhombs; Compound X (AKI) treated group: line with triangles; Combo BIBF 1120+Compound X (AKI) treated group: line with squares).

[2] = system: BxPC-3 pancreas adenocarcinoma; assay: BxPC-3 pancreas adenocarcinoma subcutaneous xenograft; assay type: in vivo, mice; conditions: for T/C: BxPC-3
Description: (§1) BomTac:NMRI-Foxn1^nu mice were grafted subcutaneously with NCI-H460 non-small cell lung carcinoma (mutant KRAS, wild-type p53), HCT 116 colon carcinoma (mutant KRAS, wild-type p53) or BxPC-3 pancreas adenocarcinoma cells (wild-type KRAS, mutant p53). Treatment was initiated when the tumors had reached a volume of ˜50 mm^3. BI 811283 was injected intravenously once or twice weekly as a single bolus or b.i.d. Alternatively, the compound was administered once-weekly by a continuous 24 h infusion via subcutaneously implanted osmotic mini-pumps. Multiple dose levels and dosing schedules were evaluated.

MV-4; 11 = assay: AML cancer model MV-4;11; assay type: in vivo; conditions: MV-4;11 AML model
NCI-H460 cells [3] = assay: Apoptosis: cleaved PARP Western blot and nuclear fragmentation of DAPI-stained cells; assay type: cell-based, human; conditions: NCI-H460, after 72 h and 96 h of treatment
Description: (§2) Compound X was profiled in enzymatic kinase assays as well as in proliferation assays on various human cancer cell lines. Cell cycle status was assessed by DNA content analysis (Cellomics ArrayScan, FACScalibur). Histone H3 phosphorylation was determined by immunofluorescence (Cellomics ArrayScan). Apoptosis was detected by Western blotting for cleaved PARP and microscopic enumeration of DAPI-stained cells showing nuclear fragmentation. Senescent cells were identified by staining for SA-β-Gal activity.

NCI-H460 cells [4] = assay: Cell cycle status by DNA content analysis (polyploidy); assay type: cell-based, human; conditions: NCI-H460, within 48 h of treatment; increased from <5%
Description: as §2

Aurora C kinase = molecular target: T1, Aurora C kinase (Homo sapiens, UniProt Q9UQB9); assay: Enzymatic kinase assay, Aurora C; assay type: biochemical
T1 sequence (Q9UQB9 1-309): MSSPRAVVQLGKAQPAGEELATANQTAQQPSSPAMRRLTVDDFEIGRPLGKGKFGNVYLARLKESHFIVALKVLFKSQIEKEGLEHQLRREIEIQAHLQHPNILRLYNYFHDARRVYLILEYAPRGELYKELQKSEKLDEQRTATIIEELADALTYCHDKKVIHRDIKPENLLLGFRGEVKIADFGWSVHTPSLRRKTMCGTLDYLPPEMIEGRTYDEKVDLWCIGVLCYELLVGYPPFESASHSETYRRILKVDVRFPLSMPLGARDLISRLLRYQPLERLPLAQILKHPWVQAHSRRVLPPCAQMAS
Description: as §2

[5] = system: NCI-H460 non-small cell lung carcinoma; assay: NCI-H460 non-small cell lung carcinoma subcutaneous xenograft; assay type: in vivo, mice; conditions: for T/C: NCI-H460
Description: as §1

[6] = system: 46 additional kinases representative of the human kinome; assay: Panel of 46 additional kinases; assay type: biochemical; conditions: Compound at 1000 nM
Description: as §2

human Aurora B kinase = human Aurora B kinase (Homo sapiens, UniProt Q96GD4); assay: Enzymatic kinase assay, Aurora B; assay type: biochemical
Description: as §2

Aurora A kinase = molecular target: T2, Aurora A kinase (Homo sapiens, UniProt O14965); assay: Enzymatic kinase assay, Aurora A; assay type: biochemical
T2 sequence (O14965 1-403): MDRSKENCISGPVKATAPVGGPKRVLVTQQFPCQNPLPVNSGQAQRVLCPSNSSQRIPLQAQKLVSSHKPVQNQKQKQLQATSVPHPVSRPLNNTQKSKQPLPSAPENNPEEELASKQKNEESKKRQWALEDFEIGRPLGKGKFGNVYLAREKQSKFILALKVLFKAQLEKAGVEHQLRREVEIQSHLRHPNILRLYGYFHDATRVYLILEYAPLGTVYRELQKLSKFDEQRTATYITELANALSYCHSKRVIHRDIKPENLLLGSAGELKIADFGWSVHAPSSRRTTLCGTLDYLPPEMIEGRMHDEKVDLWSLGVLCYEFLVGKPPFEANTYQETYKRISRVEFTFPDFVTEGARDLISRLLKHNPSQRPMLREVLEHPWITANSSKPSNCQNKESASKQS
Description: as §2

[7] = system: histone H3 phosphorylation in NCI-H460 cells; assay: Histone H3 phosphorylation by immunofluorescence (Cellomics ArrayScan); assay type: cell-based, human
Description: as §2

THP-1 = assay: AML cancer model THP-1; assay type: in vivo; conditions: THP-1 AML model
NCI-H460 cells [8] = assay: Senescence by SA-β-Gal staining; assay type: cell-based, human; conditions: NCI-H460, within 96 h; from <3%
Description: as §2

HCT 116 colon carcinoma = HCT 116 colon carcinoma subcutaneous xenograft; assay type: in vivo, mice; conditions: for T/C: HCT 116
Description: as §1

human cancer cell lines = assay: Proliferation assays on human cancer cell lines; assay type: cell-based; conditions: >20 human cancer cell lines; read-out: EC50 for inhibition of proliferation
Description: as §2

[9] = 15 BID mg/kg, weekly dose 60 mg/kg, (qdx2)x6, i.v.

Chain of human Aurora B kinase (Q96GD4 whole entry): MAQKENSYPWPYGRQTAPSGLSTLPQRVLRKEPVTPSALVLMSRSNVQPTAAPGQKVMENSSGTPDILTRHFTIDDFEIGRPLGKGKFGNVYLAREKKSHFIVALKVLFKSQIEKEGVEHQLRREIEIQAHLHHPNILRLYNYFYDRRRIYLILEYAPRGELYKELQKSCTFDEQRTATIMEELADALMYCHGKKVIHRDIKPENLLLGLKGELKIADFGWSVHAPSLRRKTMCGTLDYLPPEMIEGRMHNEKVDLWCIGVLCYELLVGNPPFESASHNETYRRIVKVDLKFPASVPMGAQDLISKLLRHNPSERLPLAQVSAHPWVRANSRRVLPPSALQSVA

Structure (SMILES): COC(=O)c1ccc2c(c1)NC(=O)/C2=C(\Nc1ccc(N(C)C(=O)CN2CCN(C)CC2)cc1)c1ccccc1 [BIBF 1120, 3-Z-[1-(4-(N-((4-methyl-piperazin-1-yl)-methylcarbonyl)-N-methyl-amino)-anilino)-1-phenyl-methylene]-6-methoxycarbonyl-2-indolinone]
median T/C value [1]: 50%

IC50 (Aurora C kinase): 17 nM
IC50 (human Aurora B kinase): 9 nM
IC50 (Aurora A kinase): 70 nM
EC50 (human cancer cell lines): 2 to 14 nM
Structure (SMILES): CC(C)NC(=O)[C@H]1CCC[C@H]1Nc1nc(Nc2ccc(C(=O)N(C)C3CCN(C)CC3)cc2)ncc1C(F)(F)F [Compound X]
T/C ([2]; 20 mg/kg, weekly dose 20 mg/kg, (q7d)x4, 24 h cont. inf.): 6%
T/C [2, 9]: 17%
effect on tumor growth ([2]; pancreas carcinoma model, multiple cycles, total weekly doses of 20 to 75 mg/kg): dose-dependent inhibition of tumor growth or tumor regression
T/C value (MV-4; 11): 5%
cleaved poly (ADP-ribose) polymerase (NCI-H460 cells [3]): An increase of cleaved poly (ADP-ribose) polymerase
fraction of cells with nuclear fragmentation (NCI-H460 cells [3]; from <1%): 7%
fraction of polyploid cells (NCI-H460 cells [4]): > 80%
T/C ([5]; 20 mg/kg, weekly dose 20 mg/kg, (q7d)x3, 24 h cont. inf.): 8%
T/C ([5]; 15 BID mg/kg, weekly dose 60 mg/kg, (qdx2)x3, i.v.): 27%
effect on tumor growth ([5]; non-small cell lung cancer model, multiple cycles, total weekly doses of 20 to 75 mg/kg): dose-dependent inhibition of tumor growth or tumor regression
kinases inhibited by more than 50% [6]: 7/46
time to inhibition of histone H3 phosphorylation [7]: < 1 h
T/C value (THP-1): 7%
senescent cells, fraction of the population (NCI-H460 cells [8]): 25%
median T/C value [1]: 45%
effect on large tumors (HCT 116 colon carcinoma; HCT 116, large tumors (350 mm^3)): regression of large tumors (350 mm^3) was induced
T/C (HCT 116 colon carcinoma; 20 mg/kg, weekly dose 20 mg/kg, (q7d)x5, 24 h cont. inf.): 2%
T/C (HCT 116 colon carcinoma; 30 mg/kg, weekly dose 60 mg/kg, (qdx2)x6, i.v.): 25%
T/C (HCT 116 colon carcinoma; [9]): 4%
T/C (HCT 116 colon carcinoma; 37.5 BID mg/kg, weekly dose 75 mg/kg, (q7d)x6, i.v.): 8%
histological examination of tumors (HCT 116 colon carcinoma; HCT 116 tumors): accumulation of enlarged, multinucleated cells
phosphorylation of histone H3 in tumors (biomarker analysis) (HCT 116 colon carcinoma; HCT 116 tumors, therapeutic doses): inhibited phosphorylation of histone H3
effect on tumor growth (HCT 116 colon carcinoma; colon carcinoma model, multiple cycles, total weekly doses of 20 to 75 mg/kg): dose-dependent inhibition of tumor growth or tumor regression
